In general, CL/F refers to clearance divided by bioavailability, as obtained after extravascular dosing.

From patent US20240216369A1, “THE USE OF A SPLICING MODULATOR FOR A TREATMENT SLOWING PROGRESSION OF HUNTINGTON'S DISEASE” (Novartis AG, priority 2019, published 2024) come the findings set out here.

SMILES strings stand for the structures.

The test system of one data set is HTT mRNA. Put plainly: Blood HTT mRNA in infants with Type 1 SMA (droplet digital PCR). In kind it is in vivo, human. The protocol:
The effect of branaplam on the expression levels of Huntingtin (HTT) mRNA was assessed in infants with Type I spinal muscular atrophy who were enrolled in an open-label multi-part first-in-human proof of concept study of oral branaplam.
Patients were dosed once weekly with branaplam. The branaplam doses were escalated in subsequent cohorts until MTD was determined or when PK results confirmed that the MTD could not be reached due to a potential pharmacokinetic exposure plateau at higher doses. […]
Levels of HTT mRNA and novel-exon-included HTT mRNA were then quantified by polymerase chain reaction (PCR) using the Bio-Rad QX200 droplet digital PCR system. […]
For HTT mRNA levels, two independent predesigned quantitative PCR assays (Assay Hs.PT.58.14833829 with forward primer 5′-[…]-3′ (SEQ ID NO: 10), reverse primer 5′-[…]-3′ (SEQ ID NO: 11) and probe 5′-56-FAM/CGCTTCCAC/ZEN/TTGTCTTCATTCTCCTTGT/3IABKFQ-3′ (SEQ ID NO: 12) and assay Hs.PT.58.25550542 with forward primer 5′-[…]-3′ (SEQ ID NO: 13), reverse primer 5′-CACCACTCTGGCTTCACAA-3′ (SEQ ID NO: 14) and probe 5′-56-FAM/CCCGACAGC/ZEN/GAGTCAGTGATTGTT/3IABKFQ-3′ (SEQ ID NO: 15), purchased from Integrated DNA Technologies, Inc.) were used. […]

Data set [1] can be described thus: Mouse population PK model (plasma). As to conditions: popPK parameters (plasma). The data set is classed as in vivo. The protocol: For the establishment of the PK/PD relationship and the development of a mouse PK/PD model, the PK parameters in mouse plasma were estimated considering PK data from studies with male C57BL/6 mice (10 mg/kg, single dose), rasH2 mice (1, 3, 4 and 10 mg/kg, repeated daily doses), and BacHD mice (10 and 50 mg/kg, single dose; 12 and 24 mg/kg, repeated, three times a week doses). […] The population PK model was described and executed by Monolix software (Version 2018R1, Lixoft).

In the case of `CC1(C)CC(Oc2ccc(-c3ccc(-c4cn[nH]c4)cc3O)nn2)CC(C)(C)N1` [Compound 18, 5-(1H-pyrazol-4-yl)-2-(6-((2,2,6,6-tetramethylpiperidin-4-yl)oxy)pyridazin-3-yl)phenol], in the data set with HTT mRNA (infants with Type 1 SMA, once weekly oral, up to 1450 study days, listed as branaplam), the “inclusion of the novel exon into blood HTT mRNA” value is “induced and elevated”. Also, the “blood HTT mRNA levels between study days 904 and 1450” value with HTT mRNA (only 1-5 long-term treated subjects) is reported as “returned to values around baseline levels”. For the same compound, in data set [1] (C57BL/6, rasH2, BacHD (pooled), other: extra-vascular administration), the CL/F is 55.8 mL/min/kg. In data set [1], this compound came in with a Q/F of 8.4 mL/min/kg, a V1 of 28.2 L/kg, a V2 of 32.5 L/kg and a ka of 0.429 h⁻¹. The same compound had a Tlag in data set [1] (pooled C57BL/6, rasH2 and BacHD data) of 0.346 h.
